Test results as given in article PMC3205185, “Identification of a Eukaryotic Reductive Dechlorinase and Characterization of Its Mechanism of Action on Its Natural Substrate” (Chemistry & Biology, 2011).

Legend:
DrcA (ΔNC16NDrcA) [1] = molecular target: T1, DrcA (ΔNC16NDrcA) (Dictyostelium discoideum, UniProt Q54B85, C54N); test: dechlorination assay with purified mutant, TLC and Orbitrap MS of the conjugates; assay type: biochemical
T1 construct: gene DDB_G0293840; ΔNDrcA, lacking the first 38 residues
T1 sequence (Q54B85 39-275 C54N): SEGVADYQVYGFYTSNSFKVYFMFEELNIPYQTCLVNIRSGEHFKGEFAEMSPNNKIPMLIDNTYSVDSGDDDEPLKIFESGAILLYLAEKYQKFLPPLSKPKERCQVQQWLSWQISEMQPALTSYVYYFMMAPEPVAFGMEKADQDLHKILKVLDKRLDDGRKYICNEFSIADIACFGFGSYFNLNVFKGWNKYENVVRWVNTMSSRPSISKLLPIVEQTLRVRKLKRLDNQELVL

[2] = molecular target: T2, DrcA (DIF-1 dechlorinase) (Dictyostelium discoideum, UniProt Q54B85); test: DIF-1 dechlorination assay with TLC, purified protein; further dechlorinated at higher enzyme or longer incubation; assay type: biochemical
T2 construct: gene DDB_G0293840
T2 sequence (Q54B85 1-275): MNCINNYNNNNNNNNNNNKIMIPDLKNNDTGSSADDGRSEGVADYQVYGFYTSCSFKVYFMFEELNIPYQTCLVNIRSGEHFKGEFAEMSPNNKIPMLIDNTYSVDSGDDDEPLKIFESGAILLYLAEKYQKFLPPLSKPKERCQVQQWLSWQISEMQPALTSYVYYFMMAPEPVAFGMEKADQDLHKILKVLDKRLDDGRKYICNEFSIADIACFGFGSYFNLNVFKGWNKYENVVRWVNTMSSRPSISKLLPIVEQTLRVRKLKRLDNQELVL

DrcA (ΔNC16NDrcA) [3] = molecular target: T1, DrcA (ΔNC16NDrcA); test: TLC time course and Orbitrap MS of products of the purified mutant; further converted to GS-DIF-GS; assay type: biochemical
[4] = substrate: CCCCCC(=O)c1c(O)c(Cl)c(OC)c(Cl)c1O; test: radioactive [3H]DIF-1 dechlorination assay with TLC, Michaelis-Menten kinetics, purified enzyme (Km); assay type: biochemical, Dictyostelium discoideum; conditions: glutathione glutathione attacks the carbon-chlorine bond to give a GS-DIF conjugate, which is resolved by Cys54

CCCCCC(=O)c1c(O)c(Cl)c(OC)c(Cl)c1O [DIF-1]
dechlorination assay with purified mutant, TLC and Orbitrap MS of the conjugates (DrcA (ΔNC16NDrcA) [1]): although DIF-1 was consumed in the assay, DIF-3 was not produced

CCCCCC(=O)c1c(O)cc(OC)c(Cl)c1O [DIF-3]
DIF-1 dechlorination assay with TLC, purified protein; further dechlorinated at [2]: only appears after all DIF-1 has been converted into the monochlorinated form, suggesting a lower affinity

CCCCCC(=O)c1c(O)c(Cl)c(OC)c(SC[C@H](NC(=O)CC[C@H](N)C(=O)O)C(=O)NCC(=O)O)c1O [GS-DIF]
TLC time course and Orbitrap MS of products of the purified mutant; further conv (DrcA (ΔNC16NDrcA) [3]): ΔNC16NDrcA must be able to accommodate the conjugate GS-DIF to attack the second carbon-chlorine bond

B1: DrcA (DIF-1 dechlorinase) (Dictyostelium discoideum) (protein)
chain: SEGVADYQVYGFYTSCSFKVYFMFEELNIPYQTCLVNIRSGEHFKGEFAEMSPNNKIPMLIDNTYSVDSGDDDEPLKIFESGAILLYLAEKYQKFLPPLSKPKERCQVQQWLSWQISEMQPALTSYVYYFMMAPEPVAFGMEKADQDLHKILKVLDKRLDDGRKYICNEFSIADIACFGFGSYFNLNVFKGWNKYENVVRWVNTMSSRPSISKLLPIVEQTLRVRKLKRLDNQELVL
notes: ΔNDrcA, lacking the first 38 residues, C-terminal 6×His tag
Km [4]: 0.088 ± 0.0175 µM | kcat [4]: 6.7 s⁻¹ | kcat/Km [4]: 7.6e+07 M⁻¹ s⁻¹
